Experiment [1] deals with Karenia brevis (Piney Island A2). Kind of experiment: K. brevis culture treatment, intact cell counts (light microscope / FlowCam). The format is cell-based. Conditions: for cell appearance in FlowCam images: 100 μM final concentration, treated flasks. How it is done:
The present inventors have determined that NO may be used to trigger cell death in Karenia brevis and potentially other harmful algae. The response to low concentrations occurs within 24 hours and varies with concentration. To describe the dose response, cultures of K. brevis (Piney Island A2) were exposed to varied concentrations of the nitric oxide donor diethylamine NONOate sodium salt hydrate or DEA NONOate (IUPAC name: sodium N-(diethylamino)-N-oxidonitrous amide).
Work described by Chung et al. (2008) employed 500 μM DEA NO to elicit ScDSP-1 expression in Skeletonema costatum. The present inventors sought to determine the low end of the dose response, if any effect, in K. brevis. Trials therefore tested the effect of DEA NONOate concentrations ranging from 100 μM to 0.1 μM. For each trial, K. brevis cultures were grown in L1 media. Cultures were diluted 1:1 from a stock flask into a total volume of 125 mL in 250-mL acid washed and autoclaved flasks. Cultures were allowed to recover for 2-4 days prior to treatment. Immediately prior to treatment, DEA NONOate (Sigma-Aldrich, St. Louis, Mo.) was dissolved from its powdered form in sterile nuclease-free water. The solution was made to a concentration of 1 mg mL^−1. Two trials were performed to delineate responses to different concentrations of NO. In each case, the appropriate volume of DEA NONO solution was added and the cultured swirled by hand gently to mix the solution. Control flasks were also used for each trial; these received only an aliquot of the water used for dissolving DEA NONOate, equal to the largest volume administered to treatment flasks for that trial. At the concentration of 1 mg mL^−1, volumes of DEA NONO solution added ranged from 1.9 mL to 1.9 μL for 100 μM to 0.1 μM final concentrations in culture flasks. Three replicate flasks were used for each concentration and negative controls. Prior to treatment and at each sampling point after treatment, 5 mL of culture were removed for counting. A 1 mL aliquot was imaged/counted on the FlowCam flow-through microscope and the remainder was stained with Lugol's iodine solution and counted by light microscope on a gridded Sedgewick counting slide (1 mm^2 grid size). For slide counting, 50-70 grid squares were counted for each sample. Although counts were obtained for most samples by FlowCam and light microscopy, the light microscope counts were used for recording quantitative data while FlowCam images were used as a record of cell appearances.

The test system of experiment [2] is caspase-like activity. The settings on record: pretreatment before supplementation of NO donors; cited from earlier work.
Another experiment concerns caspase 8. Kind of experiment: Colorimetric caspase-like enzyme activity in K. brevis, caspase 8. It is filed as cell-based, Karenia brevis. As for the experimental part:
(§1) Since caspase activity is a hallmark of PCD, experiments were conducted to examine caspase-like enzyme activity in K. brevis. The activity of enzymes that are similar to caspase-3 and caspase-8 were examined. The assays use a commercially available kit (MBL International, Woburn, Mass.) to measure the protease activity specific to certain amino acid sequence motifs. A short time series was performed to measure upregulation of caspase-like activity due to exposure to NO. NO was produced from the compound DEA-NONOate (use of this is previously described herein). […] Based on these findings, there is at least a 2-3 fold up-regulation of caspase-like activity due to NO exposure at 50-100 micromolar. This provides evidence that K. brevis death due to NO exposure is mediated by PCD pathways in the cells. This activity appears rapidly (within 20 minutes), and can decline rapidly (by 120 minutes). The decline is presumably due to actual death of the cells, since at the 120 minute mark, many cells were already in the process of lysis when viewed microscopically.

The next experiment relates to caspase 3. Description: Colorimetric caspase-like enzyme activity in K. brevis, caspase 3. The format is cell-based, Karenia brevis. As for the experimental part: as §1
The next experiment concerns ScDSP-1. Conditions: Skeletonema costatum; cited from earlier work.
The subject of experiment [3] is caspase-like activity. Kind of experiment: Caspase-like activity in K. brevis, summary statements. It is filed as cell-based, Karenia brevis. How it is done:
as §1

The subject of experiment [4] is Karenia brevis (Piney Island A2). Description: K. brevis culture treatment, intact cell counts (light microscope / FlowCam). The format is cell-based. Conditions: 20 μM final concentration, higher-density cultures, T=2 days, two replicates.
The mark [5] stands for this setting: Experiment 1, 100 uM NO, 60 min.
The mark [6] stands for this setting: Experiment 1, 100 uM NO, 120 min.

We go through four compounds from patent publication US8476196B2, “Control of harmful algal blooms by induction of programmed cell death” (University of South Florida, priority 2009, dated 2013).

`CC(C)C[C@H](NC(=O)[C@H]1O[C@@H]1C(=O)O)C(=O)NCCCCN=C(N)N` [E-64, L-transepoxysuccinyl-leucylamido-[4-guanidino]butane, reference compound]: the “protection against NO-induced mortality” value in experiment [1] (E-64 10 μM added with 20 μM NO) is given as “no protection”.

Consider Ac-DEVD-CHO, for which, in the experiment with caspase-like activity [2], the “effect on increase in caspase-like activity” value is on record as “prevented increase in caspase-like activity”.

As to `[N]=O` [NO, nitric oxide], the “Absorbance of colorimetric caspase cleavage product, caspase 8” value is on record as 0.017 in the experiment on caspase 8 (setting [5]); 0.006 in the experiment with caspase 8 (setting [6]); 0.021 with caspase 8 (Experiment 2, 50 uM NO, 20 min); 0.019 with caspase 8 (Experiment 2, 50 uM NO, 40 min); 0.018 with caspase 8 (Experiment 2, 50 uM NO, 60 min). In addition, the “Upregulation vs. control (fold), caspase 8” value with caspase 8 (setting [5]) stood at 2.4 fold; in the experiment on caspase 8 (setting [6]) it was 0.9 fold; in the experiment with caspase 8 (Experiment 2, 50 uM NO, 20 min), 2.1 fold; in the experiment on caspase 8 (Experiment 2, 50 uM NO, 40 min), 1.9 fold; with caspase 8 (Experiment 2, 50 uM NO, 60 min), 1.8 fold. In addition, the “Absorbance of colorimetric caspase cleavage product, caspase 3” value worked out at 0.014 in the experiment with caspase 3 (setting [5]); 0.001 with caspase 3 (setting [6]); 0.016 in the experiment on caspase 3 (Experiment 2, 50 uM NO, 20 min); 0.016 with caspase 3 (Experiment 2, 50 uM NO, 40 min); 0.013 in the experiment on caspase 3 (Experiment 2, 50 uM NO, 60 min). Besides, the “Upregulation vs. control (fold), caspase 3” value with caspase 3 (setting [5]) turned out to be 14 fold; with caspase 3 (setting [6]), 1 fold; in the experiment on caspase 3 (Experiment 2, 50 uM NO, 20 min) it was 2.7 fold; in the experiment on caspase 3 (Experiment 2, 50 uM NO, 40 min), 2.7 fold; in the experiment with caspase 3 (Experiment 2, 50 uM NO, 60 min), 2.2 fold. In addition, in experiment [1] (10 μM, T=5 days), the “cell counts of surviving cells (recovery)” value is given as “increased to greater than pre-treatment numbers”. Further, the intact cells present result in experiment [1] (100 μM, 1 day post-treatment) is recorded as “no intact cells were present”; in experiment [1] (100 μM, 2 days post-treatment), “no intact cells were present”. For the same compound, the cell death entry in experiment [1] (100 μM, 24 hours) is “complete cell death”. Also, the mortality at 10 µM in experiment [1] (Karenia brevis, 10 μM, second trial (FIG. 3), read-out: mortality / reduction of intact cells from pre-treatment numbers) was about 50%. The same compound returned a mortality at 20 µM in experiment [1] (Karenia brevis, 20 μM NO (FIG. 4)) of about 50%. Further, in experiment [1] (low concentrations), the “time in which response to low concentrations occurs” value was at most 24 h. In addition, the “effect on intact cell numbers” value in experiment [1] (lower concentrations, 1 μM or less (0.1 μM, 1 μM)) is recorded as “no effect”. Moreover, the “expression of a death specific protein” value in the experiment on ScDSP-1 is “induce expression of a death specific protein”. Besides, the “time by which caspase-like activity can decline” value in the experiment on caspase-like activity [3] (NO exposure) was at most 120 min. Besides, the “time in which caspase-like activity appears” value in the experiment with caspase-like activity [3] (NO exposure) is at most 20 min. In the experiment with caspase-like activity [3] (NO exposure at 50-100 micromolar), the “up-regulation of caspase-like activity” value is reported as 2-3 fold.

For the compound `CCN(CC)N([O-])N=O.[Na+]` [DEA NONOate, sodium N-(diethylamino)-N-oxidonitrous amide, reference compound], the “cell appearance in FlowCam images” value in experiment [1] is “all particles imaged by the FlowCam resembled the disrupted cells”; in experiment [1] (listed as DEA NONO), “disrupted”. Also, the intact cells present entry in experiment [1] (100 μM, 1 day post-treatment) was “no intact cells were observed”; in experiment [1] (100 μM, 2 days post-treatment), “no intact cells were observed”. For the same compound, the “decrease of average intact cell count from pre-treatment counts” value in experiment [4] worked out at 98.6%.
